In ChEMBL document CHEMBL1201862, “PubChem BioAssay data set” (2004) one finds EC50, IC50 and AC50 data, which are given here for 22 compounds.

Each structure is given as a SMILES string. Calls of active or inactive are those of the source.

Assay [1] has as its target T1, Short transient receptor potential channel 4 (Mus musculus, UniProt Q9QUQ5).
T1 sequence (Q9QUQ5 whole entry): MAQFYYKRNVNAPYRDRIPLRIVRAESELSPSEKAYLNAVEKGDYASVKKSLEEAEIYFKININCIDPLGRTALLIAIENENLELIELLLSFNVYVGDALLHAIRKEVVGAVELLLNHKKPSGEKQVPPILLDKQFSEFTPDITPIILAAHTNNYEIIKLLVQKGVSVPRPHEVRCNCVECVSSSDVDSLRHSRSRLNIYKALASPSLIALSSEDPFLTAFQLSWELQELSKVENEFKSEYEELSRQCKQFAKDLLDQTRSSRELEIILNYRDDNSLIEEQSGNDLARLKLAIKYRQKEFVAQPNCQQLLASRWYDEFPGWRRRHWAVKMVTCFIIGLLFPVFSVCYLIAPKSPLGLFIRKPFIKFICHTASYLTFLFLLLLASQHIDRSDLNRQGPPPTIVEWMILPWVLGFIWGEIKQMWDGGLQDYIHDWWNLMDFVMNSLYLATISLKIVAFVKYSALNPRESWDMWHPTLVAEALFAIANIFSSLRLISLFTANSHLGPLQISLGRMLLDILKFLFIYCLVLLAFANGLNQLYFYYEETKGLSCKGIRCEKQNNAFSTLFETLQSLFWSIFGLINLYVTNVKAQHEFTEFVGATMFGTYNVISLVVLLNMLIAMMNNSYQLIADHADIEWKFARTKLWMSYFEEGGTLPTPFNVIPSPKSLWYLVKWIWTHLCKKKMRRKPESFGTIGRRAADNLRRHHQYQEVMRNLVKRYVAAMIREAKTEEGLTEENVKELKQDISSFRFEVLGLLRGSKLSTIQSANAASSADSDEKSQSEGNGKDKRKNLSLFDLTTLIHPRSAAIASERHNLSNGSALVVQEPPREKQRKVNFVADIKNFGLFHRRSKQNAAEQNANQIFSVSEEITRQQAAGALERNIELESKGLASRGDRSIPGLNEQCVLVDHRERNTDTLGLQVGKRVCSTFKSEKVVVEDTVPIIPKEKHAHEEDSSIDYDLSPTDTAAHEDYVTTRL
Kind of assay: mouse TRPC4 channel activators, dose response, cell-based, HEK293 TRPC4/mu-opioid, Fluo-4 calcium (AID 434937). The class given is functional.

Assay [2] deals with HEK293. Kind of assay: NOD1 signaling inhibitors, primary screen, cell-based, luminescence, uHTS (AID 1578). The class given is functional. As to conditions: Homo sapiens.
Assay [3] relates to HEK293. In words: cells. The class given is functional, cell-based. As to conditions: Homo sapiens.
Assay [4] has as its system HEK293. Kind of assay: cells. In kind it is functional, cell-based. As to conditions: Homo sapiens. This is another data set of the same source.
In assay [5] the test system is HEK293. In words: NOD2 signaling inhibitors in MDP-stimulated cells, cell-based, uHTS, luminescence (AID 2001). As to conditions: Homo sapiens. In kind it is functional.
Assay [6] is described as follows: Shn3 3'UTR reporter inhibitors, dose response, cell-based, Clone20 osteoblasts, firefly luciferase, cherry-picked (AID 624132).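 Further: firefly luciferase luminescence from reporter carrying the Shn3 3'UTR in osteoblasts.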 The class given is functional.
The nature of assay [7]: HepG2 cell cytotoxicity, dose response, cytotoxicity control for Shn3 inhibitor project, CellTiter-Glo, cherry-picked (AID 624134). The class given is functional, cell-based.
Assay [8] in a line: inhibitors of HIV Env-driven cell fusion, dose response, cherry-pick (AID 652057). The class given is functional, cell-based.
Assay [9] in a line: inhibitors of clade B AD8 Env fusion, dose response, cell-based, cherry-pick (AID 652062).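 Further: luciferase signal from cell-cell fusion driven by HIV-1 clade B AD8 Env; potency is for inhibitors of fusion seen as a drop in luminescence.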 In kind it is functional.
Assay [10] has as its target Glucose-6-phosphate 1-dehydrogenase (Homo sapiens, UniProt P11413). In words: human G6PD enzyme inhibitors, dose response, selectivity assay for P. falciparum G6PD inhibitor project, biochemical, fluorescence (AID 504792). The class given is functional.
The test system of the next assay is H9c2. Kind of assay: cells. In kind it is functional, cell-based. As to conditions: Rattus norvegicus, H9c2, Myocardium.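 Further: confirmatory concentration-response retest of ultra-high-throughput screening hits for modulation of myocardial damage; cell death induced by hydrogen peroxide oxidative stress; compound pretreatment for 60 min then peroxide exposure for 2 h; potency is for protecting the cells against peroxide damage rather than for killing them.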
The target of assay [11] is Induced myeloid leukemia cell differentiation protein Mcl-1 (Homo sapiens, UniProt Q07820). The class given is functional.
Chain of Induced myeloid leukemia cell differentiation protein Mcl-1 (Q07820 whole entry): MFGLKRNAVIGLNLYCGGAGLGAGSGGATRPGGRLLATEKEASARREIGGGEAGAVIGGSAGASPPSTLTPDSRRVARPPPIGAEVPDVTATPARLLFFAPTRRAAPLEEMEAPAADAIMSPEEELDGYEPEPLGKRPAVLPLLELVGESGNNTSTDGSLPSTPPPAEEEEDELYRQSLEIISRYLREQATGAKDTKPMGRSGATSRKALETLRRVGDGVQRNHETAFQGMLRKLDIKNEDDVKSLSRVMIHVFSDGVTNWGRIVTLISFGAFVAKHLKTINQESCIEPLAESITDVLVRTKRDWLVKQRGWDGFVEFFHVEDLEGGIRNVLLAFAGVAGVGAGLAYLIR
Assay [12] concerns the target T2, High affinity choline transporter 1 (Homo sapiens, UniProt Q9GZV3).
T2 sequence (Q9GZV3 whole entry): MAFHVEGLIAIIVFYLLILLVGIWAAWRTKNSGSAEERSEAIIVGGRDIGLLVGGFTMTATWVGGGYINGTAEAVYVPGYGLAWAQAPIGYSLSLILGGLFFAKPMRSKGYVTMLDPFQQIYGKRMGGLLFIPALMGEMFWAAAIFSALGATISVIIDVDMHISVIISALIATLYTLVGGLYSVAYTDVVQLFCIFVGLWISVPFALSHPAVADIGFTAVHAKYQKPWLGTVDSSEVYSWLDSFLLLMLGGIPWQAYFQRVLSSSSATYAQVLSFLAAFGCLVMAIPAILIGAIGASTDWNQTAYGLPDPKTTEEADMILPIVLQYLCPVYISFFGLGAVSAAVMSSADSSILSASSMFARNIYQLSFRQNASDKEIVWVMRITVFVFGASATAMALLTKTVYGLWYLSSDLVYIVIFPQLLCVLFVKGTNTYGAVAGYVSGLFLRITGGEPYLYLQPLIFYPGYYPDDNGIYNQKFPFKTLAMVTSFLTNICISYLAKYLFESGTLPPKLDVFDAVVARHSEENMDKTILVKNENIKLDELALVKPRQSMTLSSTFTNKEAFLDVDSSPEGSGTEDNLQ
In words: CHT inhibitors, dose response, cell-based, 5-point CRC, membrane potential dye (AID 504840). The class given is functional.

The next assay addresses Cytochrome P450 2C9 (Homo sapiens, UniProt P11712).
The nature of assay [13]: LGR2 antagonists, dose response, cell-based, HEK293, CRE-luciferase reporter, cherry pick, set 2 (AID 743343).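 Further: transfected cells were stimulated with diluted bursicon conditioned medium after compound addition.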 The class given is functional. On the technique in general: Reporter assays use an easily measured gene product as a stand-in for the process of interest.
Assay [14] in a line: MC4R antagonists, dose response, counter-screen for LGR2 antagonist project, cell-based, plate reader, cherry pick (AID 743444).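 Further: transfected HEK 293 cells stimulated with alpha-MSH peptide; potency of inhibitors of the alpha-MSH evoked signal.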 The class given is functional. (In general: Counterscreens check selectivity or assay interference.)
A short description of assay [15]: inhibitors of firefly luciferase expression or activity, dose response, H4 neuroglioma cells, luminescence (AID 1990). In kind it is functional, cell-based.
Assay [16] in a line: Luminescence Cell-Based Dose Response HTS to Identify Inhibitors of 5'UTR Stem-Loop Driven Prion Protein mRNA Translation in H4 Neuroglioblastoma Cells. [Related pubchem assays: 1827 (Project Summary), 1813 (Primary HTS)]. The class given is functional.
A short description of assay [17]: inhibitors of SNCA 5'UTR-driven reporter translation, confirmation, H4 neuroglioma cells, luminescence (AID 1988). In kind it is functional, cell-based.

Chain of Glucose-6-phosphate 1-dehydrogenase (P11413 whole entry): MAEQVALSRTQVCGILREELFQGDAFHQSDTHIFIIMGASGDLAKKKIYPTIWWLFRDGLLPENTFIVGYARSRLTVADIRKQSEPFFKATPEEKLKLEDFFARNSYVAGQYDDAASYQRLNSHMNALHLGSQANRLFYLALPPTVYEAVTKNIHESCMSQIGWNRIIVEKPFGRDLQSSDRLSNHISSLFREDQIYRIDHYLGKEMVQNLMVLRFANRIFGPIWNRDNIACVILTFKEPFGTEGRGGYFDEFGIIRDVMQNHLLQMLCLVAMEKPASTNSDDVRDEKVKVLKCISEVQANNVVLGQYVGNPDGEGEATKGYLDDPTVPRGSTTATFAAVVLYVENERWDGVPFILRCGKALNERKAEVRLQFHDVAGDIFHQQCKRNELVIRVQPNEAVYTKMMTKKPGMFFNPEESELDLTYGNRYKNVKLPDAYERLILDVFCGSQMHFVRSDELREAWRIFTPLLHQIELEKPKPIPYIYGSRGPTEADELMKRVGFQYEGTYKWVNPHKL
Chain of Cytochrome P450 2C9 (P11712 whole entry): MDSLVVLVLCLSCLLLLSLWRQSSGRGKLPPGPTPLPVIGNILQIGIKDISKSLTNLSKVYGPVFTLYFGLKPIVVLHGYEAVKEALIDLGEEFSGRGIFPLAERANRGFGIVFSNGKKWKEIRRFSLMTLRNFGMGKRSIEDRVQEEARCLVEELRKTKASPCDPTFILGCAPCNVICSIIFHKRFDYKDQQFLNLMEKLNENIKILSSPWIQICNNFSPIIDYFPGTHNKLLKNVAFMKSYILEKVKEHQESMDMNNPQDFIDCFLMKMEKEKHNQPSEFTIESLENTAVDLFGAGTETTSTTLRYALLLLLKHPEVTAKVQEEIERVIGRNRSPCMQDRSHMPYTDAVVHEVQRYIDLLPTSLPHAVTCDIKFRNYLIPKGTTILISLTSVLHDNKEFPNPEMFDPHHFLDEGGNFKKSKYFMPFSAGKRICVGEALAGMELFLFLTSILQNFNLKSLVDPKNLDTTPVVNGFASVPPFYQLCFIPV

The EC50 is the concentration needed to bring the measured effect to its halfway point. For `CCn1c(N2CCN(Cc3ccc([N+](=O)[O-])cc3)CC2)nc2ccccc21`, in assay [1], the EC50 is 0.133 µM (active).
With `O=C(c1ccc2c3c(cccc13)CC2)C1CCCN(CC2CC2)C1` (stereo not given), the EC50 in assay [1] was 0.841 µM (active).
Broadly, the IC50 is the concentration needed to halve the response being measured. The term AC50 denotes the concentration at which the activity in the assay is half-maximal. In the case of `CSc1cccc(NS(=O)(=O)c2ccc3c(c2)CCN3C(C)=O)c1`, the EC50 in the assay on HEK293 [2] is 2.42 µM (active). Besides, the IC50 in the assay with HEK293 [3] is 10.8 µM (active); in the assay with HEK293 [4] it was > 20 µM (inactive); in the assay with HEK293 [5], 7.07 µM (active). The AC50 in [6] was 1.49 µM (active); in assay [7], 2.79 µM (active).
As for `N#Cc1ccc(CN2CCN(C(=O)CNC(=O)Cc3cccc4ccccc34)CC2)cc1`, the AC50 in assay [8] was 57.1 µM (active); in [9] it was 10.3 µM (active).
As to `COc1cccc(C2(c3cccc(OC)c3)CC2C(=O)Nc2ccc(F)cc2)c1` (stereo not given), the IC50 in assay [10] is > 80 µM (inactive).
Consider `O=[N+]([O-])c1ccc(N2CCNCC2)c(Cl)c1`, for which the EC50 in assay [1] is 0.596 µM (active).
In the case of `CC1(C)CC2CC(C)(CN2C(=O)COC(=O)c2nnc(O)c3ccccc23)C1` (stereo not given), the half-maximal inhibitory concentration (IC50) in the assay on H9c2 was 10.7 µM (active).
As to `O=C(Cn1nc(C(=O)O)c2ccccc2c1=O)Nc1ccc2c(c1)C(=O)c1ccccc1C2=O`, the IC50 in assay [11] is 4.02 µM (active).
Consider `CN(C)c1ccc(NC(=S)N2CCN(c3ncc(C(F)(F)F)cc3Cl)CC2)cc1`, for which the EC50 in assay [1] was 2.66 µM (active).
On to `Cc1ccc(C(=O)N/C(=C/C=C/c2ccccc2)C(=O)NCc2ccco2)cc1`, for which the IC50 in assay [12] was 17.4 µM (active). In addition, the AC50 at Cytochrome P450 2C9 is 10 µM (inconclusive).
For `Cc1ccc2c(c1)c(CC(=O)Nc1ccc(C)c(F)c1)c(C(=O)O)n2C`, the IC50 in assay [12] was 12.6 µM (active).
As to `COc1ccc2c(c1OC)C(=O)N1c3ccccc3C(=O)N(c3ccccc3)C21` (stereo not given), the IC50 in the assay on H9c2 is > 79 µM (inactive).
For the compound `C=CCc1c(C)nc(S)c(C#N)c1C`, in assay [10], the IC50 is > 80 µM (inactive).
For `Cc1nc(C)c(-c2ccc(SCC(=O)Nc3cccc(Cl)c3)nn2)s1`, in the assay on HEK293 [2], the EC50 was > 20 µM (inactive). Further, the figures for the IC50 in the assay on HEK293 [3], in the assay with HEK293 [4] and in the assay on HEK293 [5] were 4.18 µM (active), > 20 µM (inactive) and 4.58 µM (active), respectively.
With `CCC(=O)N1CCc2cc(Br)cc(S(=O)(=O)NCCCN(CC)Cc3ccccc3)c21`, in assay [1], the EC50 is 0.0133 µM (active).
Turning to `CCOC(=O)c1cccc(C2=C(CNC(=O)c3cccnc3)[C@H]3CC[C@@H](C2)N3Cc2ccccc2)c1`, the IC50 with H9c2 was 35.3 µM (inactive).
For the compound `COc1ccc(NS(=O)(=O)c2ccc(N/N=C(\C)c3ccncc3)c([N+](=O)[O-])c2)cc1`, the EC50 in the assay with HEK293 [2] is 4.33 µM (active). Further, the IC50 is 3.9 µM (active) with HEK293 [3], 17.8 µM (active) with HEK293 [4] and 2.11 µM (active) in the assay with HEK293 [5].
Take `COCCCNc1ccn2nc(-c3ccccc3)cc2n1`: the AC50 in [13] is 7.19 µM (active); in [14], 6.82 µM (active).
As for `C[C@@H]1CN([C@@H](C)CO)C(=O)c2cccc(NS(=O)(=O)c3cccs3)c2O[C@@H]1CN(C)Cc1ccc(C(F)(F)F)cc1`, the AC50 is 2.04 µM (active) in [8] and 16.7 µM (active) in assay [9].
In the case of `Cc1ccc(C(=O)NC2CCCCC2)cc1S(=O)(=O)N1CCCC1`, the IC50 in assay [12] was 1.26 µM (active).
For the compound `O=C(CNc1ccc2c(c1)OCO2)N/N=C\c1cn(Cc2ccccc2)c2ccccc12`, the values for the EC50 in assay [15], in assay [16] and in [17] were 9.09 µM (active), 10.5 µM (active) and 6.5 µM (active), respectively. In addition, in [10], the IC50 was > 80 µM (inactive).
For the compound `O=c1[nH]c2ccccc2c2ccccc12`, in the assay with H9c2, the IC50 is > 79 µM (inactive).
